According to US8148354B2, “Use of 20(S)-protopanaxadiol in manufacture of antidepressants” (priority 2006, dated 2012):
Marks after values point to notes of the source that are not given here.

Legend:
[1] = test system: Reserpine-Induced Ptosis in Mice; assay: Inhibition of reserpine-induced ptosis; format: in vivo, Kunming mice; conditions: reserpine 2 mg/kg i.p., 10 mice per group
Method: Fifty male Kunming mice, 8-9 weeks old and weighing 18-22 g, were randomly divided by weight into 5 groups, and administered by gavage a single dose of one of the drugs listed in Table 3 for 10 consecutive days. Sixty minutes after the last dose, mice were given an i.p. injection of reserpine (2 mg/kg). After 60 minutes, mice were put on a bracketed stand and observed for 2 minutes. The number of animals with at least one upper eyelid closed was recorded. Fisher's exact test was used for statistical analysis.

[2] = test system: 5-HTP-Induced Tremors in Mice; assay: L-5-HTP induced tremor testing of mice; format: in vivo, Kunming mice; conditions: 10 mice per group
Method: Seventy male Kunming mice, 8-9 weeks old and weighing 18-22 g, were randomly divided by weight into 7 groups and administered a single dose by gavage as shown in Table 13. […] Then, mice were individually put into cages (16×27 cm) and observed for 20 minutes. The number of animals with tremors was recorded. Fisher's exact test was used for statistical analysis.

[3] = test system: NA Re-uptake; assay: NA re-uptake test ([3H]-norepinephrine, corpus striatum homogenate); format: biochemical, SD rats
[4] = test system: monoamine neurotransmitter and its metabolite in cerebral tissues; assay: Measure of cerebral neurotransmitters in rats wearing shackles (HPLC-ECD); format: in vivo, SD rats; conditions: shackle model rats, brain
Excerpt: (i) Modeling Method: Sixty male SD rats, 8-9 weeks old and weighing 200-250 g, were randomly divided into 6 groups and subjected to gavage once a day as shown in Table 9. On the first day, individually housed rats were fitted with a cylindrical plastic shackle-like device composed of two pieces of red organic glass 0.2 cm-thick and 4 cm in diameter. The device could be adjusted according to the size of the animals and was worn for 21 days.
Preparation of Cerebral Tissues: Rats were Sacrificed by Femoral Arterial Exsanguination, and whole brains were weighed after the cerebellum was excised and homogenized in 950 μl (0.1 mol/L) perchloric acid (containing 0.05% Na2EDTA) and 50 μl (2 μg/ml) of DHBA. This material was then centrifuged at 11,000 rpm/for 10 minutes and, 10 μl of the supernatant were taken for testing. Results were as follows: The amount of each neurotransmitter was shown as the wet weight (ng/g) in cerebral tissues.
Chromatographic conditions: Chromatography was performed with a Shimadzu HPLC system, which was equipped with an L-BCD-6A electrochemical detector (detection range: 0.1-500 nA), a chromatographic column of 5 μm, 200 mm×4.6 mm ID glassy carbon electrode; the flow rate employed was 1.2 ml/min, the operating voltage was +0.75 V; and oxygenation was maintained. An NP2000 workstation was used for data recording and processing (Intelligence Information Institute of Zhejiang University). The potential difference between the working electrode and reference electrode was 0.75 V. The mobile phase, prepared with deionized water and degassed, consisted of 0.1 mmol/L citric acid-0.1 mmol/L sodium acetate buffer at pH4.37 with 10% ethanol. A mixture of a B81.2 mmol/L ion pair and 1.3 mmol/L Di-n-butylamine was used after degasification of the G4 glass filler.
Preparation of standard solutions: The stock solutions were 2 μg/ml for DHBA and 20 μg/ml for NE, DA, DOPAC, 5-HT, 5-HIAA and HAV. Standard solution 6 was prepared by mixing 20 μl each of NE, DA, DOPAC, 5-HT, 5-HIAA and HAV, then 80 μl of 0.1 mM mmol/LHCLO4 were added. Standard solution 7 (100 ng/ml) was prepared by mixing 50 μl of standard solution 6, 50 μl DHBA and 900 μl 0.1 mmol/LHCLO4. Standard solution 7 (10 μl) was used for HPLC.

[5] = test system: mice in the tail suspension test; assay: Tail suspension test in mice; format: in vivo, Kunming mice; conditions: mean ± SD
Excerpt: Fifty male Kunming mice, 9-10 weeks old and weighing 22-24 g, were randomly divided by weight into 5 groups and administered by gavage a dose of one of the drugs listed in Table 6. Sixty minutes later, mice were individually suspended by the tail (1 cm from the tip) to a horizontal 1 cm-diameter PVC bar by use of the adhesive tape. The tail of mouse was thereby prevented from twisting. The PVC bar was placed overhead to suspend the mouse upside-down, keeping the head 5 cm above the table surface. To avoid interference, each mouse was partitioned by clapboard. […] T-test was used for statistical analysis.
Fifty male Kunming mice, 8-9 weeks old and weighing 18-22 g, were randomly divided by weight into 5 groups, and administered by gavage a dose of one of the drugs listed in Table 7 for 10 consecutive days. Sixty minutes after the last dose, mice were individually suspended by the tail (1 cm from the tip) from a horizontal 1 cm-diameter PVC bar using the adhesive tape. The tail of the mouse was thereby prevented from twisting. The PVC bar was placed overhead to suspend the mouse upside down, keeping the head 5 cm above the table surface. To avoid interference, each mouse was partitioned by clapboard.

[6] = test system: chronic unpredictable stress rats; assay: Chronic unpredictable stress testing of rats (open-field test); format: in vivo; conditions: mean ± SD
Method: Male stressed SD rats were housed individually and exposed for 21 days to the following unpredictable stressors: ice water swimming (4° C., 5 min), tail pinch (3 min), water deprivation (40 h), food deprivation (40 h), paired feeding, wet bedding, binding, and overnight lighting, each stress was applied two or three times. Animals in the non-stressed control group were housed 5 per cage. An open-field test was used to observe behavior. A large cubiform box (80×80×40 cm) was employed in which the floor was divided into 25 grids of equal size using white lines, with the same size grids also marked on the surrounding walls. The number of floor grids crossed (crossing) and the number of rearing up on hind limbs (rearing) were recorded. Observations of each rat were made every 3 minutes on the 22nd day. T test was used for statistical analysis.

[7] = test system: Levodopa Behavior in Mice; assay: Enhancement of the behavioral effects of levodopa on mice; format: in vivo, Kunming mice; conditions: 10 mice per group
Method: Seventy male Kunming mice, 8-9 weeks old and weighing 18-22 g, were randomly divided by weight […] into 7 groups and administered a single dose by gavage as shown in Table 14. Sixty minutes later, levodopa at a dose of 200 mg/kg (the maximal dose not inducing running in mice) was administered i. p. Then, mice were put into separate cages and observed for 30 minutes. The number of running mice was recorded. Fisher's exact test was used for statistical analysis.

Which “Number of animals with at least one upper eyelid closed” value ([1]; 3.75 mg/kg × 10 i.g.) does the source give for `CC(C)=CCC[C@](C)(O)[C@H]1CC[C@]2(C)[C@@H]1[C@H](O)C[C@@H]1[C@@]3(C)CC[C@H](O)C(C)(C)[C@@H]3CC[C@]12C` [20(S)-protopanaxadiol] here?
The value was 9.

And the “Number of animals with at least one upper eyelid closed” value ([1]; 7.5 mg/kg × 10 i.g.)?
Its value is 8.

What about the “Number of running animals” value ([2]; 3.75 mg/kg × 1 i.g., with 5-HTP 200 mg/kg i.p.) of the same molecule?
Its value is 2.

What about the Amount of re-uptake ([3]; concentration 0.01 μg/ml) of the same molecule?
Its Amount of re-uptake is 5347.8 ± 555.1 dmp.

What about the Inhibitory rate ([3]; concentration 0.01 μg/ml) of the same molecule?
Its Inhibitory rate is 4.4%.

What about the Amount of re-uptake ([3]; concentration 0.1 μg/ml) of the same molecule?
The Amount of re-uptake was 5137.2 ± 465.7 dmp.

And the Inhibitory rate ([3]; concentration 0.1 μg/ml)?
The Inhibitory rate was 8.2%.

And the Amount of re-uptake ([3]; concentration 1 μg/ml)?
The Amount of re-uptake was 4950.6 ± 534.5 dmp.

And the Inhibitory rate ([3]; concentration 1 μg/ml)?
The Inhibitory rate was 11.5%.

And the Amount of re-uptake ([3]; concentration 10 μg/ml)?
The Amount of re-uptake was 4690.1 ± 332.1 dmp.

And the Inhibitory rate ([3]; concentration 10 μg/ml)?
The Inhibitory rate was 16.2%.

And the “Concentration of monoamine neurotransmitter and its metabolite: 5-HIAA” value (“Concentration … 5-HIAA” for short) ([4]; 3.33 mg/kg × 21 i.g.)?
Its value is 8.78 ng/g nerve tissues.

What about the “Concentration of monoamine neurotransmitter and its metabolite: DA” value (shortened to “Concentration … DA”) ([4]; 3.33 mg/kg × 21 i.g.) of the same molecule?
The value was 375.96 ng/g nerve tissues.

And the “Concentration of monoamine neurotransmitter and its metabolite: DOPAC” value (“Concentration … DOPAC” below) ([4]; 3.33 mg/kg × 21 i.g.)?
The value was 21.57 ng/g nerve tissues.

What about the “Concentration … 5-HIAA” value ([4]; 6.67 mg/kg × 21 i.g.) of the same molecule?
Its value is 9.02 ng/g nerve tissues.

And the “Concentration of monoamine neurotransmitter and its metabolite: 5-HT” value ([4]; 6.67 mg/kg × 21 i.g.)?
The value was 113.18 ng/g nerve tissues.

What about the “Concentration … DA” value ([4]; 6.67 mg/kg × 21 i.g.) of the same molecule?
The value was 401.67 ng/g nerve tissues.

And the “Concentration … DOPAC” value ([4]; 6.67 mg/kg × 21 i.g.)?
The value was 22.17 ng/g nerve tissues.

And the “Concentration of monoamine neurotransmitter and its metabolite: HAV” value ([4]; 6.67 mg/kg × 21 i.g.)?
The value was 56.37 ng/g nerve tissues.

And the “Concentration … 5-HIAA” value ([4]; 13.33 mg/kg × 21 i.g.)?
Its value is 8.62 ng/g nerve tissues.

What about the “Concentration of monoamine neurotransmitter and its metabolite: 5-HT” value ([4]; 13.33 mg/kg × 21 i.g.) of the same molecule?
Its value is 102.81 ng/g nerve tissues.

What about the “Concentration … DA” value ([4]; 13.33 mg/kg × 21 i.g.) of the same molecule?
The value was 394.41 ng/g nerve tissues.

What about the “Concentration … DOPAC” value ([4]; 13.33 mg/kg × 21 i.g.) of the same molecule?
The value was 20.68 ng/g nerve tissues.

And the “Concentration of monoamine neurotransmitter and its metabolite: HAV” value ([4]; 13.33 mg/kg × 21 i.g.)?
The value was 53.19 ng/g nerve tissues.

What about the “Concentration of monoamine neurotransmitter and its metabolite: NE” value ([4]; 13.33 mg/kg × 21 i.g.) of the same molecule?
The value was 11.04 ng/g nerve tissues.

What about the “Cumulative immobility within 6 minutes” value ([5]; single dose 3.75 mg/kg × 1 i.g.) of the same molecule?
Its value is 95.00 ± 36.21 s.

And the “Cumulative immobility within 6 minutes” value ([5]; single dose 7.5 mg/kg × 1 i.g.)?
Its value is 92.30 ± 32.93 s.

And the Number of crossing ([6]; 3.33 mg/kg × 21 i.g.)?
The Number of crossing was 32.90 ± 13.19 times/3 min.

And the Number of rearing ([6]; 3.33 mg/kg × 21 i.g.)?
Its Number of rearing is 6.50 ± 2.64 times/3 min.

What about the “Number of running animals” value ([7]; 3.75 mg/kg × 1 i.g., with levodopa 200 mg/kg i.p.) of the same molecule?
Its value is 2.

What does the source list for `CNCCC(Oc1ccc(C(F)(F)F)cc1)c1ccccc1` (stereo not shown) [Fluoxetine, reference compound]?
Number of animals with at least one upper eyelid closed ([1]; 18 mg/kg × 10 i.g.): 4*; Number of running animals ([2]; 18 mg/kg × 1 i.g., with 5-HTP 200 mg/kg i.p.): 8***; Number of running animals ([2]; 18 mg/kg × 1 i.g., without 5-HTP): 0; Amount of re-uptake ([3]; concentration 1 μg/ml): 4311.8 ± 733.8 dmp; Concentration of monoamine neurotransmitter and its metabolite: 5-HIAA ([4]; 16 mg/kg × 21 i.g.): 8.42 ng/g nerve tissues; Concentration of monoamine neurotransmitter and its metabolite: 5-HT ([4]; 16 mg/kg × 21 i.g.): 136.88 ± ng/g nerve tissues; Concentration of monoamine neurotransmitter and its metabolite: DA ([4]; 16 mg/kg × 21 i.g.): 406.97 ng/g nerve tissues; Concentration of monoamine neurotransmitter and its metabolite: DOPAC ([4]; 16 mg/kg × 21 i.g.): 21.53 ng/g nerve tissues; Concentration of monoamine neurotransmitter and its metabolite: HAV ([4]; 16 mg/kg × 21 i.g.): 62.17 ± ng/g nerve tissues; Concentration of monoamine neurotransmitter and its metabolite: NE ([4]; 16 mg/kg × 21 i.g.): 13.67 ± ng/g nerve tissues; Cumulative immobility within 6 minutes ([5]; multiple dose 18 mg/kg × 10 i.g.): 59.10 ± 35.40 s; Cumulative immobility within 6 minutes ([5]; single dose 18 mg/kg × 1 i.g.): 70.90 ± 23.11 s; Number of crossing ([6]; 16 mg/kg × 21 i.g.): 44.40 ± 1.45 times/3 min; Number of rearing ([6]; 16 mg/kg × 21 i.g.): 11.30 ± 3.43 times/3 min; Number of running animals ([7]; 18 mg/kg × 1 i.g., with levodopa 200 mg/kg i.p.): 7**; Number of running animals ([7]; 18 mg/kg × 1 i.g., without levodopa): 0
